Measured values reported in ChEMBL document CHEMBL5291721, “A preclinical secondary pharmacology resource illuminates target-adverse drug reaction associations of marketed drugs” (Nat Commun, 2023).

Assays:
[1] = molecular target: T1, Androgen receptor (Rattus norvegicus, UniProt P15207); format: functional
T1 sequence (P15207 whole entry): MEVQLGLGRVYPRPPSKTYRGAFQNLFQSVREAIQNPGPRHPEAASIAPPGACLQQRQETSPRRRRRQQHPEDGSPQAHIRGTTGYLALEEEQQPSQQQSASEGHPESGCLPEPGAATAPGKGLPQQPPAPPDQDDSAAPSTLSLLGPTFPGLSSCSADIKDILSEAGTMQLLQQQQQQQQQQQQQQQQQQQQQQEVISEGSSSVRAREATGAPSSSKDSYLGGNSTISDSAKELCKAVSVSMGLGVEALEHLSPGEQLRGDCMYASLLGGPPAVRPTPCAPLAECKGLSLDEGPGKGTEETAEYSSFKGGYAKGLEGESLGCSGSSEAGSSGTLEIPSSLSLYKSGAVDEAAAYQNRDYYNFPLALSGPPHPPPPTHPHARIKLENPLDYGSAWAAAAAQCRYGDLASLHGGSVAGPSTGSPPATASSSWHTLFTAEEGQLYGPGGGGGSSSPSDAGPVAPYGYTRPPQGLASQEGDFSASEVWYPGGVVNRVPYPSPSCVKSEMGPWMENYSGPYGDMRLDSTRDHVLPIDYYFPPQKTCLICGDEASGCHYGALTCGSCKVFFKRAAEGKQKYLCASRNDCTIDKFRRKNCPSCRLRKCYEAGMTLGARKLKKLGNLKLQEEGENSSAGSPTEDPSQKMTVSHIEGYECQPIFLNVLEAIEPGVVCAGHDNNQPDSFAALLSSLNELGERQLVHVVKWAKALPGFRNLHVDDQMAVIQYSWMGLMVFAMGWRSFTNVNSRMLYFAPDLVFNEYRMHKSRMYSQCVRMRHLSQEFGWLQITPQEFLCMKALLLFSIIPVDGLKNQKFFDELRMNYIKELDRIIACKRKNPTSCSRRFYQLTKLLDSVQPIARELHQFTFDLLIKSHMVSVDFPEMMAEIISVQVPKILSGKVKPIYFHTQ

[2] = molecular target: Beta-2 adrenergic receptor (Homo sapiens, UniProt P07550); format: functional, cell-based
Sequence of Beta-2 adrenergic receptor (P07550 whole entry): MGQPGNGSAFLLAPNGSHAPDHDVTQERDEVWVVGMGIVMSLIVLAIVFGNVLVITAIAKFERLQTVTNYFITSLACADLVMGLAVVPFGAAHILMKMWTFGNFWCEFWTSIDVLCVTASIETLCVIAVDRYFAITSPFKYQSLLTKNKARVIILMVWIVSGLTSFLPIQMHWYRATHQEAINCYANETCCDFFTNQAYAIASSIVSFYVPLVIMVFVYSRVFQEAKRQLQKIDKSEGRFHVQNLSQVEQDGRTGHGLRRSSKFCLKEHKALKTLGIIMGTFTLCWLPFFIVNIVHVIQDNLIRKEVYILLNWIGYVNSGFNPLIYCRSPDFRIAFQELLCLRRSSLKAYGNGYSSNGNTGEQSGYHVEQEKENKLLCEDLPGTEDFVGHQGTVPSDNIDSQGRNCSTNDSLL

[3] = molecular target: T2, Alpha-1A adrenergic receptor (Homo sapiens, UniProt P35348); format: functional, cell-based
T2 sequence (P35348 whole entry): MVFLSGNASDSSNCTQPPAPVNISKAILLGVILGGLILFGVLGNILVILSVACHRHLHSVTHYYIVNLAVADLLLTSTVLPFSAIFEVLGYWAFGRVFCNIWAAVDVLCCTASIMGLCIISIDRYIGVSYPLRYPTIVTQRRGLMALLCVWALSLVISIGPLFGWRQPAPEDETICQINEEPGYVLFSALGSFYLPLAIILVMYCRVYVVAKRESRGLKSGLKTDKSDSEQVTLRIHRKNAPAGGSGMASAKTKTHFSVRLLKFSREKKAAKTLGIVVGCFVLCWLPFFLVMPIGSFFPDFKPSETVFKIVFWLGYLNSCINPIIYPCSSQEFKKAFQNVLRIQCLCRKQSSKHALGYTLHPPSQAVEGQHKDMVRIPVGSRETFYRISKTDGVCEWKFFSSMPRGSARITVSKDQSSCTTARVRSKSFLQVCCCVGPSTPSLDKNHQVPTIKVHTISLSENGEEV

[4] = molecular target: 5-hydroxytryptamine receptor 2B (Homo sapiens, UniProt P41595)
Sequence of 5-hydroxytryptamine receptor 2B (P41595 whole entry): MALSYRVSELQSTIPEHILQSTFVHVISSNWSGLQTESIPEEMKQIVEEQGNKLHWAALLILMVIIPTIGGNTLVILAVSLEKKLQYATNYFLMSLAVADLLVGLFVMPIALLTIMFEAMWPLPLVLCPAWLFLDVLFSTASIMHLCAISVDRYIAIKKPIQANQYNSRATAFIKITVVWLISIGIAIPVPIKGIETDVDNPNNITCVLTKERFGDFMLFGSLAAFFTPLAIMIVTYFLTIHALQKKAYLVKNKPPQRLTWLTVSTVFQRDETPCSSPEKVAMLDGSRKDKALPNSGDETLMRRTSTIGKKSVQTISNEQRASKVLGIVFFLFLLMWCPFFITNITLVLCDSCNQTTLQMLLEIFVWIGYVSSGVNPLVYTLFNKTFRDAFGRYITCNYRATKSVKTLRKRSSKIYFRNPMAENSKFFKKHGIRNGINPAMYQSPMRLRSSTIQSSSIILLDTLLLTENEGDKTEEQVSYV

[5] = molecular target: T3, 5-hydroxytryptamine receptor 1A (Homo sapiens, UniProt P08908)
T3 sequence (P08908 whole entry): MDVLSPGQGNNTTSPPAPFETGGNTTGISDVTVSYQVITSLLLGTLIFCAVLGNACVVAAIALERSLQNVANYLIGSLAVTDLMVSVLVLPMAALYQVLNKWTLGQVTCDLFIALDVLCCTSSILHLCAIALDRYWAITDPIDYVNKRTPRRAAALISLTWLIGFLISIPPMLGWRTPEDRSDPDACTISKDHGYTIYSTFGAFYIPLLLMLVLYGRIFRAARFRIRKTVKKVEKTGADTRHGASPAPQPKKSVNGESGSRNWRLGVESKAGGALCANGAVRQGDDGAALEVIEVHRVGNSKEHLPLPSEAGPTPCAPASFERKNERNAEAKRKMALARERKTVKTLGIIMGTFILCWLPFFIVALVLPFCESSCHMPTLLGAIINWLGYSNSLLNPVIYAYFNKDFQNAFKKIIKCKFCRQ

[6] = molecular target: Cannabinoid receptor 1 (Homo sapiens, UniProt P21554)
Sequence of Cannabinoid receptor 1 (P21554 whole entry): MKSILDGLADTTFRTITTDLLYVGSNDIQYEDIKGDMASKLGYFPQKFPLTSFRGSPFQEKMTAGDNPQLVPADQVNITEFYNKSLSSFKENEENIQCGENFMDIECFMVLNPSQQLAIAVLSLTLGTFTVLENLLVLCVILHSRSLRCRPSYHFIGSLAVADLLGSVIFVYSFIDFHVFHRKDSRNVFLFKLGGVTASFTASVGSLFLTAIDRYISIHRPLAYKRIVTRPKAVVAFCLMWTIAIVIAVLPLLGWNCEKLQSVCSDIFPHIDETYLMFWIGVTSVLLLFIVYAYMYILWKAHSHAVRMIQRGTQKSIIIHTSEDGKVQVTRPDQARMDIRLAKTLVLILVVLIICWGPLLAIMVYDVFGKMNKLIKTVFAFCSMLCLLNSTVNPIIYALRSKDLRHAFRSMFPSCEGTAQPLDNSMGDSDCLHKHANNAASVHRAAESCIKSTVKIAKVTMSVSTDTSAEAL

[7] = molecular target: T4, Alpha-2A adrenergic receptor (Homo sapiens, UniProt P08913)
T4 sequence (P08913 whole entry): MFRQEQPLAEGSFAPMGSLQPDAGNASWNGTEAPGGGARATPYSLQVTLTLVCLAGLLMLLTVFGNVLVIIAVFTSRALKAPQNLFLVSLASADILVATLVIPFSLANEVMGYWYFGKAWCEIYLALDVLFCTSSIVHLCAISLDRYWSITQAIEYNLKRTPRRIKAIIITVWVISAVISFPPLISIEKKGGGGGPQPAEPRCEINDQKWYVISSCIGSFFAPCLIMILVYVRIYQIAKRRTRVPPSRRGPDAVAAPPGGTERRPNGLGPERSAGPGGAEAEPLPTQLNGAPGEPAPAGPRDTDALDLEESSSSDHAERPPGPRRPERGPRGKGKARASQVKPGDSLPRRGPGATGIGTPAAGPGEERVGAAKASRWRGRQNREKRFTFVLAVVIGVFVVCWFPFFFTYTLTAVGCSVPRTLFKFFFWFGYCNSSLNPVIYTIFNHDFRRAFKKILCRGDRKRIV

[8] = molecular target: 5-hydroxytryptamine receptor 2A (Homo sapiens, UniProt P28223)
Sequence of 5-hydroxytryptamine receptor 2A (P28223 whole entry): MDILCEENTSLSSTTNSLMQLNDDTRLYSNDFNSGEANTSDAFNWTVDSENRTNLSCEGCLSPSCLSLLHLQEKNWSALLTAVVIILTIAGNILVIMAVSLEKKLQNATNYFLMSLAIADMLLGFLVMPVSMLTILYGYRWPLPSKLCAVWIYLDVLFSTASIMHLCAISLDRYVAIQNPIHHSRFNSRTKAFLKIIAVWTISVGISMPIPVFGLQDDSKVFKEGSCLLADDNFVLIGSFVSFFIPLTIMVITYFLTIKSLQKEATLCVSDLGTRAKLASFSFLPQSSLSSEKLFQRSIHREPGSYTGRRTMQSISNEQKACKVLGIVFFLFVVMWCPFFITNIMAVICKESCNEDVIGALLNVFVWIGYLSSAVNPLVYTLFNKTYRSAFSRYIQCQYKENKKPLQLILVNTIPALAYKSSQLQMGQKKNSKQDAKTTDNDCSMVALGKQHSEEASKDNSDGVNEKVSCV
Also: assay procedure not described here.

Row | Structure (SMILES) | AC50 [1] [µM] | AC50 [2] [µM] | AC50 [3] [µM] | AC50 [4] [µM] | AC50 [5] [µM] | AC50 [6] [µM] | AC50 [7] [µM] | AC50 [8] [µM]
1 | COc1cc2c(N)nc(N3CCN(C(=O)OCC(C)(C)O)CC3)nc2c(OC)c1OC [TRIMAZOSIN] | 17 | > 30 | 1.2 |  |  |  |  | 
2 | COc1ccccc1OCCNCC(O)c1ccc(C)c(S(N)(=O)=O)c1 (stereo unspecified) [AMOSULALOL] | > 30 |  | 0.24 | > 30 | 0.052 |  |  | 
3 | CC(Oc1c(Cl)cccc1Cl)C1=NCCN1 (stereo unspecified) [LOFEXIDINE] | > 30 |  |  |  | 0.29 | > 30 |  | 
4 | COc1ccc2c3c1O[C@H]1[C@@H](O)C=C[C@H]4[C@@H](C2)N(C)CC[C@@]341 [CODEINE] |  |  | > 30 | > 10 | > 10 | > 10 | > 10 | > 10
5 | Cc1ccc(-n2nccn2)c(C(=O)N2CCN(c3nc4cc(Cl)ccc4o3)CC[C@H]2C)c1 [SUVOREXANT] | > 30 |  | > 30 |  |  |  |  | 
6 | CC(C(=O)O)c1ccc(N2Cc3ccccc3C2=O)cc1 (stereo unspecified) [INDOPROFEN] |  |  | > 30 |  |  | > 30 |  | > 10
7 | CCC(C(=O)O)c1ccc(N2Cc3ccccc3C2=O)cc1 (stereo unspecified) [INDOBUFEN] | > 30 | > 30 | 5.3 |  |  |  |  | 
8 | Cn1c(=O)c2c(ncn2CC2OCCO2)n(C)c1=O [DOXOFYLLINE] | > 30 | > 30 | > 30 |  |  |  |  | 
9 | CN1CCC(=C2c3ccccc3CCc3sccc32)CC1 [PIZOTYLINE] |  | > 30 | 3.32 |  | 0.338 | 1.66 | 0.577 | 0.0002
10 | CC(=O)O[C@H]1CC[C@@]2(C)C(=CC[C@@H]3[C@@H]2CC[C@]2(C)C(c4cccnc4)=CC[C@@H]32)C1 [ABIRATERONE ACETATE] | > 30 | > 30 | > 30 |  | > 10 |  |  | > 10
11 | Clc1ccc(CCCOCCCN2CCCCC2)cc1 [PITOLISANT] | > 30 | > 30 | > 30 |  |  |  |  | 
12 | CC[C@@H]1C(=O)OC[C@@H]1Cc1cncn1C [PILOCARPINE] |  | > 30 | > 30 | > 10 | > 10 | 16.1 | > 10 | 4.72
13 | C[C@H](N)[C@H](O)c1cccc(O)c1 [METARAMINOL] |  |  |  | > 30 |  | > 10 |  | > 10
14 | CC(C)OC(=O)CCC/C=C\C[C@@H]1[C@@H](CC[C@@H](O)CCc2ccccc2)[C@H](O)C[C@@H]1O [LATANOPROST] | > 30 | > 30 |  |  |  |  |  | 
15 | CCc1c(Cl)c(O)c(Cl)c(O)c1C(=O)O[C@H]1[C@H](O)[C@H](OC)[C@H](OC/C2=C\C=C\C[C@H](O)/C(C)=C/[C@H](CC)[C@@H](O[C@@H]3OC(C)(C)[C@@H](OC(=O)C(C)C)[C@H](O)[C@@H]3O)/C(C)=C/C(C)=C/C[C@@H]([C@@H](C)O)OC2=O)O[C@@H]1C [FIDAXOMICIN] | > 30 |  |  | > 10 | > 10 | > 10 | > 10 | > 10
16 | CCCCc1ncc(/C=C(\Cc2cccs2)C(=O)O)n1Cc1ccc(C(=O)O)cc1 [EPROSARTAN] |  | > 30 | > 30 | > 10 | > 10 | > 10 | > 10 | > 10
17 | CCCc1nc(C(C)(C)O)c(C(=O)OCc2oc(=O)oc2C)n1Cc1ccc(-c2ccccc2-c2nnn[nH]2)cc1 [OLMESARTAN MEDOXOMIL] |  |  | > 30 | > 10 | > 10 |  | > 10 | > 10
18 | C=CCC1(C(C)CC)C(=O)NC(=O)NC1=O (stereo unspecified) [TALBUTAL] |  |  |  |  |  | > 10 |  | > 10
19 | CC(C)=CCC/C(C)=C/C=C/C(C)=C/C=C/C(C)=C/C=C/C=C(C)/C=C/C=C(C)/C=C/C=C(\C)CCC=C(C)C [LYCOPENE] | > 30 |  | > 30 |  |  | > 30 |  | 
20 | CN1C(=O)C(O)N=C(c2ccccc2Cl)c2cc(Cl)ccc21 (stereo unspecified) [LORMETAZEPAM] | > 30 |  | > 30 |  |  |  |  | 
21 | C/C(O)=C(\C#N)C(=O)Nc1ccc(C(F)(F)F)cc1 [TERIFLUNOMIDE] | > 30 | > 30 | 21 |  |  |  |  | 
22 | COc1ccc2c3c1O[C@H]1C(=O)CC[C@@]4(O)[C@@H](C2)N(C)CC[C@]314 [OXYCODONE] | > 30 |  | > 30 |  |  |  |  | 
23 | Cc1cc(O)c(C(=O)N[C@@H](C(=O)N[C@@H]2C(=O)N3C(C(=O)O)=C(CSc4nnnn4C)CS[C@H]23)c2ccc(O)cc2)cn1 [CEFPIRAMIDE] | > 30 |  |  |  |  | > 30 |  | 
24 | CC(C)(C)c1cc(C(C)(C)C)c(NC(=O)c2c[nH]c3ccccc3c2=O)cc1O [IVACAFTOR] |  |  |  | > 10 | > 10 | > 10 | > 10 | > 10
25 | CCC1(CC)C(=O)NCC(C)C1=O (stereo unspecified) [METHYPRYLON] | > 30 | > 30 |  |  |  |  |  | 
26 | CN1C(=O)C(O)N=C(c2ccccc2)c2cc(Cl)ccc21 (stereo unspecified) [TEMAZEPAM] |  | > 30 |  | > 10 | > 10 | > 10 | > 10 | > 10
27 | CCN(CC)C(=O)N[C@H]1C[C@@H]2c3cccc4[nH]cc(c34)C[C@H]2N(C)C1 [TERGURIDE] | > 30 | > 30 | 1.1 |  |  |  |  | 
